The values below come from patent US7592374B2, “Insecticidal nitromethylene compounds” (Crompton Corporation, priority 2005, dated 2009).

Holding throughout (assay type): in vivo
One experiment has as its system Helicoverpa virescens. Nature of the experiment: Tobacco budworm test (TB). Conditions: Heliothis virescens, 336 h; 0.2 mL of 3000 ppm stock solution on diet cell surface; second instar larva; after 14 days; corrected by Abbott's formula; read-out: Percent Control TB (tobacco budworm). The method, then: In the following examples, a stock solution for the compounds of the present invention was prepared at 3000 ppm by dissolving 0.24 gram of each compound to be tested in eight mL of acetone and adding 72 mL of distilled water plus three drops of ethoxylated sorbitan monolaurate, a wetting agent. […] For each example that follows, the stock solution was used and the specificized dilutions made. All the tests discussed below, which involved treatment with compounds of this invention, were always repeated with controls, in which the active compound was not provided, to permit a comparison upon which the percent control was calculated.
For each compound tested, 0.2 mL of the stock solution prepared asdescribed above, was pipetted onto the surface of each of five diet cells, allowed to spread over the surfaces and air dried for two hours. Then a second instar Helicoverpa virescens larva was introduced into each cell. After 14 days, the number of living larvae was determined for each treatment and percent control, corrected by Abbott's formula, was calculated.

The subject of experiment [1] is Tetranychus urticae Koch. The experiment is described as follows: Mite ovicide test (MIOV). Conditions: 216 h, 1000 ppm spray to run off on cowpea leaves, unhatched eggs examined nine days following treatment, read-out: Percent Control MIOV (mite ovicide). As for the experimental part:
In the following examples, a stock solution for the compounds of the present invention was prepared at 3000 ppm by dissolving 0.24 gram of each compound to be tested in eight mL of acetone and adding 72 mL of distilled water plus three drops of ethoxylated sorbitan monolaurate, a wetting agent. […] For each example that follows, the stock solution was used and the specificized dilutions made. All the tests discussed below, which involved treatment with compounds of this invention, were always repeated with controls, in which the active compound was not provided, to permit a comparison upon which the percent control was calculated. One day before treatment of cowpea primary leaves with the test solutions, a “Figure 8” configuration of tree tanglefoot was applied to each of two cowpea primary leaves, one from each of two plants in a pot. The circle nearer the stem was designated for the mite ovicide test and the circle further from the stem was designated for the mite adulticide test. Groups of adult mites (Tetranychus urticae Koch) were transferred into ovicide circles one day before treatment and the females were allowed to deposit eggs until one hour before treatment, at which point all the adults were removed. The plants were then sprayed to run off with a 1000 ppm of solution diluted from the 3000 ppm stock solution. Nine days following treatment the ovicide rings were examined for unhatched eggs and living immature mites. The percent control was estimated based on the number of unhatched eggs.

The subject of experiment [2] is Tetranychus urticae Koch. Nature of the experiment: Mite adulticide test (MI). The following applies: 120 h, 1000 ppm spray to run off on cowpea leaves, adult mites placed 1 day after treatment, live mites counted five days later, read-out: Percent Control MI (mite adulticide). As for the experimental part: In the following examples, a stock solution for the compounds of the present invention was prepared at 3000 ppm by dissolving 0.24 gram of each compound to be tested in eight mL of acetone and adding 72 mL of distilled water plus three drops of ethoxylated sorbitan monolaurate, a wetting agent. […] For each example that follows, the stock solution was used and the specificized dilutions made. All the tests discussed below, which involved treatment with compounds of this invention, were always repeated with controls, in which the active compound was not provided, to permit a comparison upon which the percent control was calculated. One day before treatment of cowpea primary leaves with the test solutions, a “Figure 8” configuration of tree tanglefoot was applied to each of two cowpea primary leaves, one from each of two plants in a pot. The circle nearer the stem was designated for the mite ovicide test and the circle further from the stem was designated for the mite adulticide test. Groups of adult mites (Tetranychus urticae Koch) were transferred into ovicide circles one day before treatment and the females were allowed to deposit eggs until one hour before treatment, at which point all the adults were removed. The plants were then sprayed to run off with a 1000 ppm of solution diluted from the 3000 ppm stock solution. One day following treatment of the plants with the test solution, groups of approximately 25 adult mites were transferred into the adulticide rings. Five days later, these rings were examined for live mites remaining on the leaves. The percent control was estimated based on the number of mites surviving on the control plants.

Regarding `COc1ccc(-c2ccccc2)cc1N/N=C(/C(C)C)[N+](=O)[O-]` [Compound 4], the pest or weed control at 3000 µg/mL with Helicoverpa virescens worked out at 0%. Further, the pest or weed control at 1000 ppm in the experiment with Tetranychus urticae Koch [1] amounted to 0%; in the experiment with Tetranychus urticae Koch [2], 100%.
Regarding `CC/C(=N\Nc1ccc2c(c1)c1ccccc1n2CC)[N+](=O)[O-]` [Compound 11], the pest or weed control at 3000 µg/mL with Helicoverpa virescens worked out at 57%. Besides, the pest or weed control at 1000 ppm with Tetranychus urticae Koch [1] and in the experiment with Tetranychus urticae Koch [2] was 30% in each case.
Regarding `CC/C(=N\Nc1cc(-c2ccccc2)ccc1OC)[N+](=O)[O-]` [Compound 1, Propanal, 1-nitro, (4-methoxy-[1,1′-biphenyl]-3-yl)hydrazone], in the experiment on Helicoverpa virescens, the pest or weed control at 3000 µg/mL was determined as 64%. The pest or weed control at 1000 ppm in the experiment on Tetranychus urticae Koch [1] and in the experiment on Tetranychus urticae Koch [2] was 100% throughout.
For the compound `CC(C)C/C(=N\Nc1cccc(-c2ccccc2)c1)[N+](=O)[O-]` [Compound 8], in the experiment with Helicoverpa virescens, the pest or weed control at 3000 µg/mL was 40%. Further, the pest or weed control at 1000 ppm in the experiment with Tetranychus urticae Koch [1] was found to be 0%; in the experiment on Tetranychus urticae Koch [2], 100%.
As to `CC/C(=N/Nc1cc(-c2ccccc2)ccc1C)[N+](=O)[O-]` [Compound 7], the pest or weed control at 3000 µg/mL in the experiment with Helicoverpa virescens worked out at 0%. Moreover, the pest or weed control at 1000 ppm with Tetranychus urticae Koch [1] is 70%; in the experiment on Tetranychus urticae Koch [2], 100%.
The corresponding values for `CCCCCOc1ccc(-c2ccccc2)cc1N/N=C(/CC)[N+](=O)[O-]` [Compound 6] are 0%, 30% and 100%.
On the same counts, the results for `COc1ccc(-c2ccccc2)cc1N/N=C/[N+](=O)[O-]` [Compound 2] are 100%, 0% and 0%.
As for `CC/C(=N\Nc1cccc(-c2ccccc2)c1)[N+](=O)[O-]` [Compound 5], in the experiment with Helicoverpa virescens, the pest or weed control at 3000 µg/mL came to 0%. For the same compound, the pest or weed control at 1000 ppm was 0% in the experiment with Tetranychus urticae Koch [1] and 100% with Tetranychus urticae Koch [2].
Regarding `CCC/C(=N\Nc1cc(-c2ccccc2)ccc1OC)[N+](=O)[O-]` [Compound 3], the pest or weed control at 3000 µg/mL in the experiment with Helicoverpa virescens amounted to 0%. The pest or weed control at 1000 ppm with Tetranychus urticae Koch [1] and in the experiment on Tetranychus urticae Koch [2] was 100% throughout.
Take `C/C(=N\Nc1ccc2c(c1)Cc1ccccc1-2)[N+](=O)[O-]` [Compound 10]: in the experiment with Helicoverpa virescens, the pest or weed control at 3000 µg/mL was found to be 0%. The pest or weed control at 1000 ppm in the experiment on Tetranychus urticae Koch [1] and with Tetranychus urticae Koch [2] was 0% each time.
`CC/C(=N/Nc1ccc(Cl)nc1)[N+](=O)[O-]` [Compound 12]: the pest or weed control at 3000 µg/mL in the experiment with Helicoverpa virescens was found to be 100%. Further, the pest or weed control at 1000 ppm in the experiment with Tetranychus urticae Koch [1] was 70%; in the experiment on Tetranychus urticae Koch [2], 100%.
In the case of `CC/C(=N/Nc1cc(OC)ccc1-c1ccccc1)[N+](=O)[O-]` [Compound 9], the pest or weed control at 3000 µg/mL with Helicoverpa virescens came to 14%. Besides, the pest or weed control at 1000 ppm in the experiment on Tetranychus urticae Koch [1] and in the experiment on Tetranychus urticae Koch [2] was 70% in each case.
